Laboratory results reported in patent publication US20080194575A1, “Treatment for non-alcoholic-steatohepatitis” (priority 2006, published 2008).

Columns and labels:
Assay type in all cases: in vivo, C56BL/6 mice
[1] = system: fatty acid translocase/CD36; experiment: Fatty acid translocase/CD36 gene expression in liver by real time RT-PCR; conditions: HSD 4 weeks, compound A 30 mg/kg daily subcutaneous (FIG. 4E)
Method: (§1) Animals, feeding and treatments Two groups of 8 week old male C56BL/6 mice were set under a high sucrose containing diet together with 1% Orotic acid (HSD) for 4 weeks (TD 02366, Tekland Mills) (Feldstein et al. J Hepatol, 39:978-983(2003)). All animals were purchased from Jackson Laboratories and were treated and handled following the National Academy of Sciences criteria (NIH publication 86-23 revised 1985). One group of animals received a daily subcutaneous injection of compound A at a concentration of 30 mg/kg (compound A) and the second group received vehicle with the same frequency (Vehicle). Additionally, a third group of mice was fed under a normal chow diet (control).
(§2) RNA isolation and quantitative Real Time PCR RNA from frozen liver tissue was extracted with PeqGOLD-RNAPure kit (Peqlab). First strand synthesis was performed with Oligo dT primers and reverse transcription with M-MLV Reverse Transcriptase (Invitrogen Corp.) Quantitative Real Time PCR was performed with the AbbyPrism 7300 Real-Time PCR system from Applied Biosystems by using SYBR Green Reagent (Applied biosystems). Real time reactions were performed twice in triplicates. All values were normalized to the level of GAPDH. Primer sequences are detailed in Table 1.

hepatocyte apoptosis = experiment: TUNEL assay on frozen liver sections (hepatocyte apoptosis); conditions: HSD 4 weeks, compound A 30 mg/kg daily subcutaneous
Method: as §1
(§3) Detection of apoptosis Apoptotic cell death was determined in liver tissue by using two difference strategies. Caspase-3 activity was analysed in whole liver extracts. Proteins were extracted with the lysis buffer containing 1M Hepes, 10% CHAPS, 0.5 EDTA, 1 m DTT and 0.1 M pefa-block and further incubated with the fluorescent substrate Ac-DEVD-AMC (Biomol). The enzymatic activity was then measured at λ. excitation 390 nm and λ emission 510 nm and the result was corrected with the protein concentration. Additionally, we performed a TUNEL assay on frozen liver sections using the “In situ cell death detection Kit, POD” (Roche Diagnostics Corp.) following manufacturer's instructions.

CPT-1 = CPT-1 mRNA expression in liver by real time RT-PCR; conditions: HSD 4 weeks, compound A 30 mg/kg daily subcutaneous, vs vehicle (FIG. 4B)
Method: as §1, §2

[2] = system: Cytochrome P450 2E1 (CYP2E1); experiment: CYP2E1 mRNA expression in liver by real time RT-PCR; conditions: HSD 4 weeks, compound A 30 mg/kg daily subcutaneous (FIG. 5A)
Method: as §1, §2

NF-κB = experiment: HSD induced NF-κB activation in liver (I-κBα western blot, p65 immunohistochemistry); conditions: HSD 4 weeks, compound A 30 mg/kg daily subcutaneous
Method: as §1
(§4) Histological evaluation Livers from mice were harvested and after fixation with formaldehyde embedded in paraffin for further histological evaluation. Hematoxylin & Eosin staining was performed in liver sections and steatosis was assessed following a semiquantitative scoring system. Oil red 0 staining was performed to evidence the presence of intracellular lipds. Liver fibrosis was determined by Sirius Red which stains collagen fibres. Scoring of fibrosis was performed following the Brunt system. Additionally, immunohistochemistry (IHC) was performed on cryosections for the polyclonal anti-P65 (A) antibody, dilution 1/50 and anti-TNFα antibody, dilution 1/20 (both from Santa Cruz Biotechnology Inc.). […]

PPARγ = PPARγ expression in liver on the mRNA and protein level; conditions: HSD 4 weeks
Method: as §1
(§5) Western blot analysis Whole liver protein extracts were obtained by using ice- cold buffer (20 mM Tris pH 7.5, 150 mM NaCl, 1 mM EGTA, 1 mM EDTA, 1% Triton X-100, 2.5 mM sodium pyrophosphate and cocktail of protease inhibitors). […]
as §2, with “Real time reactions were performed twice in triplicates. All values were normalized to the level of GAPDH. Primer sequences are detailed in Table 1.” left out

IL-6 = IL-6 expression in liver by Real Time RT-PCR; conditions: HSD 4 weeks, compound A 30 mg/kg daily subcutaneous, HSD/vehicle vs HSD/compound A (FIG. 3A)
Method: as §1, §2

Caspase-3 = Caspase-3 activity in whole liver extracts (Ac-DEVD-AMC); conditions: HSD 4 weeks, compound A 30 mg/kg daily subcutaneous (FIG. 6A)
Method: as §1, §3

[3] = system: HSD induced hepatic steatosis; experiment: Histological evaluation of HSD induced hepatic steatosis (H&E semiquantitative score, Oil-Red-O staining); conditions: HSD 4 weeks
Method: as §1, §4

[4] = Serum analysis after fasting in HSD fed mice: blood glucose, serum insulin (insulin resistance); conditions: HSD 4 weeks, compound A 30 mg/kg daily subcutaneous
Method: as §1
(§6) Serum analysis Blood was taken from mice after fasting and glucose levels were measured with Ascensia Elite sensor (Bayer). Serum Insulin (Linco Research) and Adiponectin (R&D systems) levels were quantified by ELISA.

[5] = High sucrose diet (HSD) induced obesity in mice: body weight gain and abdominal fat; conditions: HSD 4 weeks, compound A 30 mg/kg daily subcutaneous
Method: as §1

MnSOD = MnSOD mRNA expression in liver by real time RT-PCR; conditions: HSD 4 weeks, compound A 30 mg/kg daily subcutaneous, vs vehicle and chow controls (FIG. 5B)
Method: as §1, §2

TNF = TNF expression in liver by Real Time RT-PCR; conditions: HSD 4 weeks, compound A 30 mg/kg daily subcutaneous, HSD/vehicle vs HSD/compound A (FIG. 3B)
Method: as §1, §2

Acyl-CoA oxidase (ACOX) = Acyl-CoA oxidase (ACOX) mRNA expression in liver by real time RT-PCR; conditions: HSD 4 weeks, compound A 30 mg/kg daily subcutaneous, vs vehicle (FIG. 4C)
Method: as §1, §2

adiponectin = experiment: Serum and liver adiponectin expression by ELISA; conditions: after 4 weeks of HSD, compound A 30 mg/kg daily subcutaneous
Method: as §1, §6

Catalase = Catalase mRNA expression in liver by real time RT-PCR; conditions: HSD 4 weeks, compound A 30 mg/kg daily subcutaneous, vs vehicle and chow controls
Method: as §1, §2

[6] = system: HSD induced liver fibrosis; experiment: Liver fibrosis by Sirius red staining, Brunt score; conditions: HSD 4 weeks
Method: as §1, §4

PPARα = PPARα expression in liver (real time RT-PCR, western blot); conditions: HSD 4 weeks
Method: as §1, §5
as §2, with “Real time reactions were performed twice in triplicates. All values were normalized to the level of GAPDH. Primer sequences are detailed in Table 1.” left out

[7] = compound A 30 mg/kg daily subcutaneous, vs HSD/vehicle

CC(=O)N1CCN(C(=O)c2ccc(Nc3nccc(-c4ccc(Cl)cc4)n3)cc2)CC1 [compound A, 1-(4-{4-[4-(4-Chloro-phenyl)-pyrimidin-2-ylamino]-benzoyl}-piperazin-1-yl)-ethanone]
CD36 gene expression [1]: upregulated in HSD/compound A mice | TUNEL-positive cells (hepatocyte apoptosis): increase in TUNEL-positive cells, which could be blocked using compound A | CPT-1 mRNA expression (CPT-1): up-regulated in livers from mice that received the compound A compared to vehicle treated animals | CYP2E1 mRNA expression [2]: reduced HSD induced upregulation of CYP2E1 and its expression was not significantly different than the chow control group | I-κBα levels, western blot of whole liver extracts (NF-κB; lower levels in HSD/vehicle): I-κBα was clearly present in HSD/compound A | NF-κB activation, p65 immunohistochemistry on liver sections (NF-κB; strong activation in HSD/vehicle): stainings were practically negative in HSD/compound A | PPARγ mRNA expression (PPARγ; compound A 30 mg/kg daily subcutaneous (FIG. 4D)): upregulated in livers derived from these animals | PPARγ protein expression, western blot (PPARγ; [7]): more pronounced presence in compound A mice | IL-6 mRNA expression (IL-6): upregulation of IL-6 and TNF mRNA expression was found compared to the HSD/compound A | caspase 3 activity (Caspase-3): strongly reduced caspase 3 activity to a level as found in chow control mice | fat deposits in liver (Oil-Red-O staining) ([3]; compound A 30 mg/kg daily subcutaneous): only minor microvesicular fat dropples could be observed in some of the HSD/compound A mice analysed | liver histology / steatosis (H&E staining) ([3]; compound A 30 mg/kg daily subcutaneous (FIG. 2)): liver histology similar to chow control animals with no clear evidence of fat accumulation | serum insulin levels ([4]; ELISA, vs HSD/vehicle (FIG. 1C)): roughly significantly less blood insulin that HSD/vehicle treated animals (p=0.06) | blood glucose levels ([4]; fasted, HSD/vehicle vs HSD/compound A (FIG. 1B)): blood glucose levels were significantly higher in this group compared to animals treated with either HSD/compound A | fat accumulation in the abdominal cavity ([5]; macroscopical, vs vehicle and chow control): less amount of fat that was not significantly different compared to control chow mice | body weight gain ([5]; vs HSD/vehicle (FIG. 1A)): significant weight gain was observed in vehicle treated mice after 4 weeks of HSD feeding compared to compound A treated mice | MnSOD mRNA expression (MnSOD): significantly higher in compound A treated animals compared to vehicle treated mice and chow controls | TNF mRNA expression (TNF): upregulation of IL-6 and TNF mRNA expression was found compared to the HSD/compound A | ACOX mRNA expression (Acyl-CoA oxidase (ACOX)): up-regulated in livers from mice that received the compound A compared to vehicle treated animals | adiponectin expression in serum (adiponectin; vs chow controls (FIG. 3C)): no significant change in adiponectin expression | adiponectin expression in liver (adiponectin; vs chow controls (FIG. 3D)): no significant change in adiponectin expression | Catalase mRNA expression (Catalase): significantly higher in compound A treated animals compared to vehicle treated mice and chow controls | fibrosis score according to Brunt score ([6]; compound A 30 mg/kg daily subcutaneous, HSD/vehicle score 1.6): virtually zero | liver collagen expression (Sirius red staining) ([6]; liver sections, compound A 30 mg/kg daily subcutaneous (FIG. 6B)): no significant degree of collagen expression could be detected | PPARα protein, western blot (PPARα; [7]): higher presence of PPARα in livers from HSD/compound A mice than in HSD/vehicle animals | PPARα mRNA expression (PPARα; real time RT-PCR, compound A 30 mg/kg daily subcutaneous (FIG. 4A)): significantly higher expression in liver from HSD fed mice treated with compound A
